Experimental data published in article PMC4920673, “Nitroimidazole carboxamides as antiparasitic agents targeting Giardia lamblia, Entamoeba histolytica and Trichomonas vaginalis” (European Journal of Medicinal Chemistry, 2016).
Converted amounts (≈) assume the structure as drawn. Like-named read-outs stand apart in the source and are kept apart here.

Key:
[1] = test system: C. difficile NAP1/027 (ATCC BAA-1803); assay: Broth microdilution MIC assay, C. difficile NAP1/027; type: cell-based, Clostridium difficile; conditions: Clostridioides difficile, ATCCBAA1803; strain NAP1/027
Procedure: Clostridium difficile strains (630, ATCC BAA-1382 and NAP1/027, ATCC BAA-1803) were maintained as previously described. The minimum inhibition concentration (MIC) was determined according to the CLSI Methods with modifications in broth and inoculum for C. difficile, [25], [26]. Briefly, compounds and control antibiotics were serially diluted two-fold in 96-well plates (Non-binding surface, Corning). The plates were placed in a Coy anaerobic chamber (5% H2, 10% CO2, 85% N2) overnight to reduce the medium. C. difficile bacteria from BHIS(TA) agar plates were cultured anaerobically in BHIS at 37 °C overnight. […]. Compound concentration ranged from 64 to 0.03 μg/mL. An antibiotic standard, a positive growth control (no compound) and a sterility control (no bacteria) were included on each 96 well plate. Plates were covered and incubated at 37 °C for 24 h. MICs for each strain were determined as the lowest concentration without visible growth. Variance between replicates was typically within one 2-fold dilution. Median MICs are reported with a range given when the median MIC was between two tested concentrations.

[2] = test system: G. lamblia WB (MtzS); assay: ATP-bioluminescence growth/survival EC50 assay, G. lamblia WB; conditions: for S.I (CC50/EC50): average cytotoxicity against HEK293 and HepG2 / G. lamblia WB activity
Procedure: (§1) Compounds were screened for antiparasitic activity using an ATP-bioluminescence based assay for cell growth and survival, [24]. […] Viable cell numbers were determined in triplicate using the CellTiter-Glo Luminescent Cell Viability Assay.

[3] = test system: E. histolytica HM1:IMSS; assay: ATP-bioluminescence growth/survival EC50 assay, E. histolytica; type: cell-based, Entamoeba histolytica; conditions: Entamoeba histolytica
Procedure: as §1

[4] = test system: C. difficile 630 (ATCC BAA-1382); assay: Broth microdilution MIC assay, C. difficile 630; type: cell-based, Clostridium difficile; conditions: Clostridioides difficile, ATCCBAA1382; strain 630, MtzS; median of n = 4; read-out: MIC C. difficile 630
Procedure: Clostridium difficile strains (630, ATCC BAA-1382 and NAP1/027, ATCC BAA-1803) were maintained as previously described. The minimum inhibition concentration (MIC) was determined according to the CLSI Methods with modifications in broth and inoculum for C. difficile, [25], [26]. Briefly, compounds and control antibiotics were serially diluted two-fold in 96-well plates (Non-binding surface, Corning). […] C. difficile bacteria from BHIS(TA) agar plates were cultured anaerobically in BHIS at 37 °C overnight. […] An antibiotic standard, a positive growth control (no compound) and a sterility control (no bacteria) were included on each 96 well plate. Plates were covered and incubated at 37 °C for 24 h. MICs for each strain were determined as the lowest concentration without visible growth. […] Median MICs are reported with a range given when the median MIC was between two tested concentrations.

[5] = Resazurin cytotoxicity assay, HepG2; type: cell-based, Human; conditions: human, 24 h, highest concentration 100 μM, n = 3, read-out: CC50 Hep G2
Procedure: (§2) Human HEK293 and HepG2 cells were seeded at 3000 and 5000 cells per well in 384-well plates, respectively. Cells were cultured in Dulbecco's modified Eagle's medium with 10% FBS for 24 h at 37 °C, 5% CO2. A dilution series of compounds was added, with the highest concentration of 100 μM. […] After 24 h incubation with the compounds, 5 μM resazurin was added into each well and incubated at 37 °C for 2 h. As a negative control, 1% Triton X-100 was added into the culture media to lyse all of the cells. The fluorescence intensity was read using Polarstar Omega with excitation/emission 560/590 nm. Data were analysed with GraphPad Prism 6 software (La Jolla, California USA) to calculate CC50 values.

[6] = Resazurin cytotoxicity assay, HEK293; type: cell-based, Human; conditions: human, 24 h, highest concentration 100 μM, n = 3, read-out: CC50 HEK 293
Procedure: as §2

[7] = test system: G. lamblia 713M3 (MtzR); assay: ATP-bioluminescence growth/survival EC50 assay, G. lamblia 713M3; type: cell-based, Giardia lamblia; conditions: Giardia duodenalis
Procedure: as §1

[8] = test system: T. vaginalis F1623; assay: ATP-bioluminescence growth/survival EC50 assay, T. vaginalis; type: cell-based, Trichomonas vaginalis; conditions: Trichomonas vaginalis
Procedure: as §1

[9] = Giardia duodenalis, read-out: EC50 G. lamblia WB, MtzS strain WB, minimum n = 3
[10] = Giardia duodenalis, read-out: pEC50 ± SE G. lamblia WB, MtzS strain WB (converted)
[11] = read-out: EC50 E. histolytica HM1:IMSS
[12] = read-out: pEC50 ± SE E. histolytica HM1:IMSS (converted)
[13] = read-out: EC50 G. lamblia 713M3, MtzR strain 713M3, minimum n = 3
[14] = read-out: pEC50 ± SE G. lamblia 713M3, MtzR strain 713M3 (converted)
[15] = read-out: EC50 T. vaginalis F1623, MtzS, minimum n = 3
[16] = read-out: pEC50 ± SE T. vaginalis F1623, MtzS (converted)

SMILES	MIC [1] [µg/mL]	EC50 [2, 9] [µM]	EC50 [2, 10] [µM]	S.I (CC50/EC50) [2]	EC50 [3, 11] [µM]	EC50 [3, 12] [µM]	MIC [4] [µg/mL]	CC50 at 24 h ([5]; HepG2 cells) [µM]	CC50 at 24 h ([6]; HEK293 cells) [µM]	EC50 [7, 13] [µM]	EC50 [7, 14] [µM]	EC50 [8, 15] [µM]	EC50 [8, 16] [µM]	EC50 ([2]; read-out: EC50 G. lamblia WB, MtzS strain WB, minimum n = 3) [µM]	CC50 at 24 h [5] [µM]	CC50 at 24 h [6] [µM]
CC(NC(=O)c1ncc([N+](=O)[O-])n1C)c1ccc(F)cc1 (stereo not shown) [Compound 8d, N-(1-(4-fluorophenyl)ethyl)-1-methyl-5-nitro-1H-imidazole-2-carboxamide]	> 64	2.9	2.88	>34	10	10	64 (≈ 219 µM)	> 100	> 100	1.9	1.86	3.8	3.8			
Cc1ccc(CCNC(=O)c2ncc([N+](=O)[O-])n2C)cc1 [Compound 8e, 1-methyl-N-(4-methylphenethyl)-5-nitro-1H-imidazole-2-carboxamide]	> 64	2.8 to 3.5	2.82	>36	13	12.9	> 64	> 100	> 100	> 20	> 20		8.13	2.8		
Cn1c([N+](=O)[O-])cnc1C(=O)NCc1ccccn1 [Compound 8f, 1-methyl-5-nitro-N-(pyridin-2-ylmethyl)-1H-imidazole-2-carboxamide.xTFA]	64	1.6	1.58	>63	14	14.1	64	> 100	> 100	4.1	4.07	1.4	1.45			
Cn1c([N+](=O)[O-])cnc1C(=O)N1CCCC1 [Compound 8i, (1-methyl-5-nitro-1H-imidazol-2-yl)(pyrrolidin-1-yl)methanone]	64 (≈ 285 µM)	2.9	2.88	>34	22	21.9	64 (≈ 285 µM)	> 100	> 100	4	3.98	1.7	1.74			
Cn1c([N+](=O)[O-])cnc1C(=O)NC1CC1 [Compound 8j, N-cyclopropyl-1-methyl-5-nitro-1H-imidazole-2-carboxamide]	> 64	3.4	3.39	>29	12	12	> 64	> 100	> 100	8.6	8.71	1.1	1.1			
NC(=O)c1nc([N+](=O)[O-])cn1Cc1ccc(F)cc1 [Compound 13a, 1-(4-fluorobenzyl)-4-nitro-1H-imidazole-2-carboxamide]		> 50	> 50.1		> 50	> 50.1	> 64								> 100	> 100
NC(=O)c1nc([N+](=O)[O-])cn1Cc1ccc(OC(F)(F)F)cc1 [Compound 13b, 4-nitro-1-(4-(trifluoromethoxy)benzyl)-1H-imidazole-2-carboxamide]		4.1	4.07	>22	> 25	> 25.1	> 64								> 100	> 100
NC(=O)c1nc([N+](=O)[O-])cn1Cc1cccc(OC(F)(F)F)c1 [Compound 13c, 4-nitro-1-(3-(trifluoromethoxy)benzyl)-1H-imidazole-2-carboxamide]		8.4	8.32	>12	> 50	> 50.1	> 64								> 100	> 100
Cc1ccc(CCn2cc([N+](=O)[O-])nc2C(N)=O)cc1 [Compound 13d, 1-(4-methylphenethyl)-4-nitro-1H-imidazole-2-carboxamide]	> 64	> 50	> 50.1		> 50	> 50.1	> 64	> 100	> 100							
NC(=O)c1nc([N+](=O)[O-])cn1Cc1ccccn1 [Compound 13e, 4-nitro-1-(pyridin-2-ylmethyl)-1H-imidazole-2-carboxamide]	> 64	27	26.9	>3.7	> 50	> 50.1	> 64	> 100	> 100							
CNC(=O)c1nc([N+](=O)[O-])cn1Cc1ccc(OC(F)(F)F)cc1 [Compound 14a, N-methyl-4-nitro-1-(4-(trifluoromethoxy)benzyl)-1H-imidazole-2-carboxamide]	> 64	3.4	3.39	>29	30	30.2									> 100	> 100
CN(C)C(=O)c1nc([N+](=O)[O-])cn1Cc1ccc(OC(F)(F)F)cc1 [Compound 14b, N,N-dimethyl-4-nitro-1-(4-(trifluoromethoxy)benzyl)-1H-imidazole-2-carboxamide]	64 (≈ 179 µM)	2.7	2.69	>37	19	19.1	64 (≈ 179 µM)								> 100	> 100
NNC(=O)c1nc([N+](=O)[O-])cn1Cc1ccc(OC(F)(F)F)cc1 [Compound 14e, 4-nitro-1-(4-(trifluoromethoxy)benzyl)-1H-imidazole-2-carbohydrazide]	> 64	7.5	7.59	>13	45	44.7	> 64								> 100	> 100
O=C(NCc1ccc(F)cc1)c1ncc[nH]1 [Compound 17, N-(4-fluorobenzyl)-1H-imidazole-2-carboxamide]		> 50			> 50		> 64					> 20				
NC(=O)c1nccn1Cc1ccc(OC(F)(F)F)cc1 [Compound 18, 1-(4-(trifluoromethoxy)benzyl)-1H-imidazole-2-carboxamide]		> 50			> 50		> 64									
Nc1c[nH]c(C(=O)NCc2ccc(F)cc2)n1 [Compound 20, 4-amino-N-(4-fluorobenzyl)-1H-imidazole-2-carboxamide]		> 50			> 50		> 64					> 20				
